Columns and labels:
[1] = Phase I 3 + 3 dose escalation and expansion: DLT, MTD and RP2D; assay type: in vivo, human; conditions: extensive CYP2C19 metabolizers
[2] = tested on: CYP3A4; conditions: cited from earlier work
[3] = clinical; conditions: human, in vivo
[4] = cited from earlier work
[5] = tested on: hepatocellular carcinoma; conditions: patients with hepatocellular carcinoma, p=0.04, cited from earlier work
[6] = tested on: CYP2C19 and CYP3A4/5; conditions: cited from earlier work

Row | SMILES | MTD and RP2D, temsirolimus ([1]; intravenous, in combination with tivantinib) | metabolizing enzymes [2] | AUC0–∞, ratio (%) geometric means [3] | Cmax, ratio (%) geometric means [3] | AUC(0-inf) ([3]; AUC0–∞, geometric mean) | Cmax ([3]; Cmax, geometric mean) | RP2D in CYP2C19 poor metabolizers [4] | time to progression, HR vs placebo ([5]; 90% CI 0.43–0.94) | time to progression ([5]; placebo 1.4 months) | metabolizing enzymes [6] | MTD and RP2D, tivantinib ([1]; oral, in combination with temsirolimus) | Dose adjusted AUC0–12, geometric mean [3] | Dose adjusted Cmax, geometric mean [3]
1 | CO[C@H]1C[C@@H]2CC[C@@H](C)[C@@](O)(O2)C(=O)C(=O)N2CCCC[C@H]2C(=O)O[C@H]([C@H](C)C[C@@H]2CC[C@@H](OC(=O)C(C)(CO)CO)[C@H](OC)C2)CC(=O)[C@H](C)/C=C(\C)[C@@H](O)[C@@H](OC)C(=O)[C@H](C)C[C@H](C)/C=C/C=C/C=C/1C [temsirolimus] | 20 mg weekly | primarily metabolized by CYP3A4 | 1.09% | 0.94% | 1340 ng·h/mL | 363 ng/mL |  |  |  |  |  |  | 
2 | O=C1NC(=O)[C@@H](c2cn3c4c(cccc24)CCC3)[C@@H]1c1c[nH]c2ccccc12 [tivantinib] |  |  |  |  |  |  | 240 mg twice daily | 0.64 | 1.6 months | metabolized primarily by CYP2C19 and partially by CYP3A4/5 | 240 mg twice daily | 67.78 ng·h/mL/mg | 9.27 ng/mL/mg

— publication PMC5809175 (Investigational new drugs, 2016)
